This is an account of results in patent publication US20210369669A1, “AUTOPHAGY ACTIVATORS AND INHIBITORS OF FERROPTOSIS FOR PREVENTING ACUTE RENAL FAILURE AND NEUROTOXCITY INDUCED BY CERTAIN ANTIBIOTICS” (SystaMedic Inc., priority 2018, published 2021).

Read-outs that look alike come from different tables or passages of the source.

In series [1] the test system is rat model of acute renal injury (colistin-induced). Put plainly: Colistin-induced acute renal injury in rats: serum creatinine and urea. Format: in vivo. The method, then: Rats were injected I.P. on the left side of the animals with a 30 mg/kg dose of colistin once a day for eight consecutive days.
Series [2] relates to cisplatin-induced renal damage. The following applies: rats; cited from earlier work.
The conditions of series [3]: dogs; estimated from oral studies; from U.S. Pat. No. 5,629,337; cited from earlier work.
For series [4] the following is noted: monkeys; estimated from oral studies; from U.S. Pat. No. 5,629,337; cited from earlier work.
Series [5] has as its system mouse model of renal injury (colistin-induced). Description: Colistin-induced acute renal injury, mouse model. The following applies: very low doses of zileuton. The class given is in vivo.
A further series concerns mouse N2a neuronal cells. As to conditions: cited from earlier work.
The test system of series [6] is central and peripheral nerve tissues. As to conditions: colistin 15 mg/kg/day for 7 days in mice; cited from earlier work.
Setting [7] is: rat serum, day 1 prior to dosing, colistin 30 mg/kg I.P. once a day, zileuton 3 mg/kg I.P., edaravone 15 mg/kg I.P. or atorvastatin 25 mg/kg P.O.
[8] abbreviates: rat serum, day 4, colistin 30 mg/kg I.P. once a day, zileuton 3 mg/kg I.P., edaravone 15 mg/kg I.P. or atorvastatin 25 mg/kg P.O.
Where [9] appears, read: rat serum, day 8, colistin 30 mg/kg I.P. once a day, zileuton 3 mg/kg I.P., edaravone 15 mg/kg I.P. or atorvastatin 25 mg/kg P.O.

Consider `CC(c1cc2ccccc2s1)N(O)C(N)=O` (racemic) [zileuton, (±) 1-[1-(1-benzothiophen-2-yl)ethyl]-1-hydroxyurea], for which the “Inhibition of colistin-induced acute renal injury” value in series [1] (very low doses of zileuton, rat model) was “potent inhibition”; in series [5], “potent inhibition”. Further, in series [1] (zileuton I.P. around 3 mg/kg, colistin 30 mg kg, rat), the “Effect on colistin-induced elevation of creatinine and urea levels” value is “blocks the elevation of creatinine and urea levels”. Also, the “Protection against cisplatin-induced renal damage” value in series [2] is given as “protect rats against cisplatin-induced renal damage”. Also, the elimination half-life is 7 h in series [3] and 0.333 h in series [4].

Turning to `CC(C)c1c(C(=O)Nc2ccccc2)c(-c2ccccc2)c(-c2ccc(F)cc2)n1CC[C@@H](O)C[C@@H](O)CC(=O)O` [atorvastatin], the “Effect on colistin-induced elevation of creatinine and urea levels” value in series [1] (colistin 3 mg/kg/diem over eight days, rats) was “blocks the elevation of creatinine and urea levels”.

`CCN(CC)CCCC(C)Nc1ccnc2cc(Cl)ccc12` (centres unmarked) [chloroquine]: the “Effect on colistin-induced apoptosis” value in the series with mouse N2a neuronal cells (inhibition of autophagy by chloroquine) is reported as “enhances colistin-induced apoptosis”.

Regarding `CC1=NN(c2ccccc2)C(=O)C1` [edaravone, 5-methyl-2-phenyl-4H-pyrazol-3-one], the “Protection against cisplatin-induced renal damage” value in series [2] is listed as “protect rats against cisplatin-induced renal damage”.

In the case of Colistin Sulfate, in series [1] (setting [7]), the “Mean Creatinine Day 1” value was found to be 0.44 mg/dL and the “Mean Urea Day 1” value was determined as 37 mg/dL. Moreover, in series [1] (setting [8]), the “Mean Creatinine Day 4” value turned out to be 0.71 mg/dL and the “Mean Urea Day 4” value was 69 mg/dL. Further, in series [1] (setting [9]), the “Mean Creatinine Day 8” value amounted to 0.96 mg/dL and the “Mean Urea Day 8” value worked out at 85 mg/dL.

Consider colistin, for which, in series [6], the “Mitochondrial dysfunction in nerve tissues” value was “induced mitochondrial dysfunction in central and peripheral nerve tissues”. Besides, the “Apoptosis of neuronal cells” value in the series on mouse N2a neuronal cells (200 μM colistin for 24 h) was “become apoptotic”.
